From PubChem BioAssay AID248 (DTP/NCI, 2004)
“And” between values parts separate entries of the source, which are not always exact repeats. Equal values may be shown once. Inconclusive results and toxic doses are left out. Rule as the data show it: active = T/C of 150% or more; inactive = T/C below 125%.

Test system: L1210 leukemia ip in BDF1 mice, survival T/C
Assay: NCI In Vivo Anticancer Drug Screen. Data for tumor model L1210 Leukemia (intraperitoneal) in B6D2F1 (BDF1) mice
Details: endpoint: mean survival time, higher = longer survival
How it was run: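 Mice bearing the transplanted tumor received compound or vehicle. Survival of the treated group was divided by that of the vehicle-treated control group to give the ratio.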

[1] = dose: 100.0 mg/kg/injection, schedule: Q01DX001 (ip), vehicle: saline
[2] = dose: 200.0 mg/kg/injection, schedule: Q01DX001 (ip), vehicle: saline
[3] = dose: 400.0 mg/kg/injection, schedule: Q01DX001 (ip), vehicle: saline
[4] = dose: 100.0 mg/kg/injection, schedule: Q04DX002 (ip), vehicle: Klucel (hydroxypropylcellulose) (HPC)
[5] = dose: 200.0 mg/kg/injection, schedule: Q04DX002 (ip), vehicle: Klucel (hydroxypropylcellulose) (HPC)
[6] = dose: 400.0 mg/kg/injection, schedule: Q04DX002 (ip), vehicle: Klucel (hydroxypropylcellulose) (HPC)

Measured: T/C

CCCCCCC(=O)/C=C/c1ccc(N(C)C)cc1
inactive: dose: 100.0 mg/kg/injection, schedule: Q01DX001 (sc), vehicle: steriod suspending solution 97 % of control | dose: 100.0 mg/kg/injection, schedule: Q04DX003 (sc), vehicle: steriod suspending solution 105 % of control | dose: 200.0 mg/kg/injection, schedule: Q01DX001 (sc), vehicle: steriod suspending solution 105 % of control | dose: 200.0 mg/kg/injection, schedule: Q04DX003 (sc), vehicle: steriod suspending solution 103 % of control | dose: 400.0 mg/kg/injection, schedule: Q01DX001 (sc), vehicle: steriod suspending solution 97 % of control | dose: 400.0 mg/kg/injection, schedule: Q04DX003 (sc), vehicle: steriod suspending solution 102 % of control

CCOC(=O)C1CC1(C)Br (stereo not drawn)
inactive: dose: 3.13 mg/kg/injection, schedule: Q04DX002 (ip), vehicle: saline with Tween-80 97 % of control | dose: 6.25 mg/kg/injection, schedule: Q04DX002 (ip), vehicle: saline with Tween-80 87 % of control | dose: 25.0 mg/kg/injection, schedule: Q04DX002 (ip), vehicle: saline with Tween-80 87 % of control | dose: 100.0 mg/kg/injection, schedule: Q04DX002 (ip), vehicle: saline with Tween-80 90 % of control

CC[P+](CC)(CC)c1ccccc1
inactive: dose: 6.0 mg/kg/injection, schedule: Q04DX003 (ip), vehicle: saline 103 % of control | dose: 6.25 mg/kg/injection, schedule: Q01DX009 (ip), vehicle: saline 100 % of control | dose: 12.0 mg/kg/injection, schedule: Q04DX003 (ip), vehicle: saline 107 % of control | dose: 12.5 mg/kg/injection, schedule: Q01DX009 (ip), vehicle: saline 100 % of control | dose: 25.0 mg/kg/injection, schedule: Q01DX009 (ip), vehicle: Klucel (hydroxypropylcellulose) (HPC) 100 % of control | dose: 25.0 mg/kg/injection, schedule: Q01DX009 (ip), vehicle: saline 110 % of control | dose: 25.0 mg/kg/injection, schedule: Q04DX003 (ip), vehicle: saline 96 % of control and 92 % of control

Cc1cc(C)c(Br)cc1N
inactive: dose: 100.0 mg/kg/injection, schedule: Q01DX001 (ip), vehicle: Klucel (hydroxypropylcellulose) (HPC) 90 % of control | dose: 200.0 mg/kg/injection, schedule: Q01DX001 (ip), vehicle: Klucel (hydroxypropylcellulose) (HPC) 95 % of control | dose: 400.0 mg/kg/injection, schedule: Q01DX001 (ip), vehicle: Klucel (hydroxypropylcellulose) (HPC) 102 % of control

NCCNCCN
inactive: dose: 50.0 mg/kg/injection, schedule: Q01DX001 (ip), vehicle: saline 102 % of control | [1] 116 % of control | [2] 104 % of control | [3] 108 % of control

CC1(C)NC(=S)NC1=S
inactive: dose: 100.0 mg/kg/injection, schedule: Q01DX009 (ip), vehicle: alcohol 103 % of control | [4] 89 % of control | dose: 200.0 mg/kg/injection, schedule: Q01DX009 (ip), vehicle: alcohol 101 % of control | [5] 89 % of control | [6] 96 % of control

COc1ccc2c(c1)C1CCCCC1SCC2=O (stereo not drawn)
inactive: dose: 100.0 mg/kg/injection, schedule: Q01DX001 (ip), vehicle: other 100 % of control | dose: 200.0 mg/kg/injection, schedule: Q01DX001 (ip), vehicle: other 96 % of control | dose: 400.0 mg/kg/injection, schedule: Q01DX001 (ip), vehicle: other 96 % of control

Cc1c(C)c(C)c(CSC(N)=Nc2ccccc2)c(C)c1C
inactive: dose: 50.0 mg/kg/injection, schedule: Q01DX009 (ip), vehicle: saline with Tween-80 98 % of control | dose: 100.0 mg/kg/injection, schedule: Q01DX009 (ip), vehicle: saline with Tween-80 102 % of control | dose: 200.0 mg/kg/injection, schedule: Q01DX009 (ip), vehicle: saline with Tween-80 102 % of control

NC(=O)C1OC(n2cnc3c(N)ncnc32)C(O)C1O (stereo not drawn)
inactive: dose: 0.09 mg/kg/injection, schedule: Q01DX009 (ip), vehicle: saline 101 % of control | dose: 0.19 mg/kg/injection, schedule: Q01DX005 (ip), vehicle: saline 114 % of control | dose: 0.19 mg/kg/injection, schedule: Q01DX009 (ip), vehicle: saline 100 % of control | dose: 0.39 mg/kg/injection, schedule: Q01DX009 (ip), vehicle: saline 107 % of control | dose: 0.78 mg/kg/injection, schedule: Q01DX009 (ip), vehicle: saline 103 % of control | dose: 1.56 mg/kg/injection, schedule: Q01DX009 (ip), vehicle: saline 114 % of control

CC1CCCCC12C(=O)NC(=S)NC2=O (stereo not drawn)
inactive: dose: 75.0 mg/kg/injection, schedule: Q01DX001 (ip), vehicle: other 112 % of control | dose: 150.0 mg/kg/injection, schedule: Q01DX001 (ip), vehicle: other 98 % of control | dose: 300.0 mg/kg/injection, schedule: Q01DX001 (ip), vehicle: other 101 % of control

O=C(O)C(F)(F)C(F)(F)C(F)(F)F.[Ag]
inactive: dose: 10.0 mg/kg/injection, schedule: Q01DX001 (ip), vehicle: acetone 101 % of control | dose: 20.0 mg/kg/injection, schedule: Q01DX001 (ip), vehicle: acetone 96 % of control | dose: 40.0 mg/kg/injection, schedule: Q01DX001 (ip), vehicle: acetone 109 % of control

Cc1cnc(-n2cc(C)c(-c3ccccc3O)n2)nc1-c1ccccc1O
inactive: [4] 96 % of control | [5] 88 % of control | [6] 100 % of control

N#CC1C(=O)NC(c2ccccc2)=CC1c1ccccc1 (stereo not drawn)
inactive: [1] 100 % of control | [2] 94 % of control | [3] 94 % of control

CSc1ccc(/C=C/c2ccc([N+](=O)[O-])cc2)cc1
inactive: dose: 100.0 mg/kg/injection, schedule: Q01DX009 (ip), vehicle: Klucel (hydroxypropylcellulose) (HPC) 97 % of control | dose: 100.0 mg/kg/injection, schedule: Q04DX003 (ip), vehicle: Klucel (hydroxypropylcellulose) (HPC) 91 % of control | dose: 200.0 mg/kg/injection, schedule: Q01DX009 (ip), vehicle: Klucel (hydroxypropylcellulose) (HPC) 88 % of control | dose: 200.0 mg/kg/injection, schedule: Q04DX003 (ip), vehicle: Klucel (hydroxypropylcellulose) (HPC) 93 % of control | dose: 400.0 mg/kg/injection, schedule: Q01DX009 (ip), vehicle: Klucel (hydroxypropylcellulose) (HPC) 92 % of control | dose: 400.0 mg/kg/injection, schedule: Q04DX003 (ip), vehicle: Klucel (hydroxypropylcellulose) (HPC) 88 % of control

S=C(c1ccco1)N1CCOCC1
inactive: dose: 75.0 mg/kg/injection, schedule: Q01DX001 (ip), vehicle: carboxymethylcellulose (CMC) 97 % of control | dose: 75.0 mg/kg/injection, schedule: Q01DX009 (ip), vehicle: saline with Tween-80 102 % of control | dose: 75.0 mg/kg/injection, schedule: Q04DX003 (ip), vehicle: saline with Tween-80 104 % of control | dose: 150.0 mg/kg/injection, schedule: Q01DX001 (ip), vehicle: carboxymethylcellulose (CMC) 104 % of control | dose: 150.0 mg/kg/injection, schedule: Q01DX009 (ip), vehicle: saline with Tween-80 100 % of control | dose: 150.0 mg/kg/injection, schedule: Q04DX003 (ip), vehicle: saline with Tween-80 97 % of control | dose: 300.0 mg/kg/injection, schedule: Q01DX001 (ip), vehicle: carboxymethylcellulose (CMC) 98 % of control | dose: 300.0 mg/kg/injection, schedule: Q04DX003 (ip), vehicle: saline with Tween-80 89 % of control

CC1=NC(C#N)=C(C#N)N=C(c2ccccc2)C1
inactive: dose: 100.0 mg/kg/injection, schedule: Q01DX009 (ip), vehicle: gum acacia 99 % of control | dose: 200.0 mg/kg/injection, schedule: Q01DX009 (ip), vehicle: gum acacia 91 % of control

CCc1cc(CC)c(S(=O)(=O)O)c(CC)c1CC
inactive: dose: 100.0 mg/kg/injection, schedule: Q01DX009 (ip), vehicle: saline 90 % of control

CCOC(=O)c1nnn(-c2cccnc2)c1C
inactive: dose: 100.0 mg/kg/injection, schedule: Q04DX002 (ip), vehicle: saline 99 % of control | dose: 200.0 mg/kg/injection, schedule: Q04DX002 (ip), vehicle: saline 101 % of control | dose: 400.0 mg/kg/injection, schedule: Q04DX002 (ip), vehicle: saline 92 % of control
